Read-outs that look alike come from different tables or passages of the source.

The subject of assay [1] is GABAergic IPSCs onto POMC neurons. Nature of the assay: GABAergic inhibitory postsynaptic currents (IPSCs) recorded in POMC neurons of hypothalamic slices. It is filed as cell-based, mouse.
The nature of assay [2]: Food intake after injection into the paraventricular nucleus (PVN) of fasted rats. The assay is classed as in vivo, rat. As for the experimental part: (§1) Animals: Male Wistar rats (200-250 g), 7-8 weeks old (Charles River Laboratories, United Kingdom) were maintained under controlled temperature (21-23° C.) and light conditions (lights on 07:00-19:00) with ad libitum access to water and food (RM1 diet; SDS Ltd., Witham, United Kingdom) except where stated. Arcuate and paraventricular nuclei cannulations and injections were performed as previously described (Glaum et al., Mol. Pharmacol. 50, 230-5, 1996; Lee et al., J. Physiol (Lond) 515, 439-52; 1999; Shiraishi et al., Nutrition 15, 576-9, 1999). Correct intranuclear cannula placement was confirmed histologically at the end of each study period (Glaum et al., Mol. Pharmacol. 50, 230-5, 1996; Lee et al., J. Physiol (Lond) 515, 439-52, 1999; Shiraishi et al., Nutrition 15, 576-9, 1999). All animal procedures were approved under the British Home Office Animals (Scientific Procedures) Act, 1986. All injection studies on fasting animals were performed in the early light-phase (0800-0900). All dark-phase feeding studies injections were performed just prior to lights off.

A short description of assay [3]: Food intake after injection into the arcuate nucleus of fasted rats. The note with it: rats fasted 24 hours. It is filed as in vivo, rat. How it is done: as §1, with “Arcuate” for “Animals: Male Wistar rats (200-250 g), 7-8 weeks old (Charles River Laboratories, United Kingdom) were maintained under controlled temperature (21-23° C.) and light conditions (lights on 07:00-19:00) with ad libitum access to water and food (RM1 diet; SDS Ltd., Witham, United Kingdom) except where stated. Arcuate”

A further assay concerns POMC neurons. Kind of assay: Whole cell recordings of membrane potential, currents and action potentials in EGFP-labeled POMC neurons of hypothalamic (ARC) slices. It is filed as cell-based, mouse.
The test system of assay [4] is NPY and α-MSH release from hypothalamic explants. Kind of assay: Neuropeptide release from hypothalamic explants (RIA). It is filed as cell-based, rat. The note with it: 50 nM. As for the experimental part: Hypothalamic explants: Male Wistar rats were killed by decapitation and the whole brain immediately removed, mounted with the ventral surface uppermost and placed in a vibrating microtome (Biorad, Microfield Scientific Ltd., Devon, UK). A 1.7 mm slice was taken from the base of the brain to include the PVN and the ARC and immediately transferred to 1 ml of artificial CSF (aCSF) (Kim et al., J. Clin. Invest. 105, 1005-11, 2000) equilibrated with 95% O2 and 5% CO2 and maintained at 37° C. After an initial 2-hour equilibration period, with aCSF replaced every 60 minutes, the hypothalami were then incubated for 45 minutes in 600 μl aCSF (basal period) before being exposed to the Y2A […] in 600 μl aCSF. Finally, the viability of the tissue was verified by a 45 minute exposure to 56 mM KCL; isotonicity was maintained by substituting K^+ for Na^+.

Another assay deals with T1, NPY Y5 receptor (Homo sapiens, UniProt Q15761).
T1 construct: host or cells: unnamed cell line expressing the receptor
T1 sequence (Q15761 1-445): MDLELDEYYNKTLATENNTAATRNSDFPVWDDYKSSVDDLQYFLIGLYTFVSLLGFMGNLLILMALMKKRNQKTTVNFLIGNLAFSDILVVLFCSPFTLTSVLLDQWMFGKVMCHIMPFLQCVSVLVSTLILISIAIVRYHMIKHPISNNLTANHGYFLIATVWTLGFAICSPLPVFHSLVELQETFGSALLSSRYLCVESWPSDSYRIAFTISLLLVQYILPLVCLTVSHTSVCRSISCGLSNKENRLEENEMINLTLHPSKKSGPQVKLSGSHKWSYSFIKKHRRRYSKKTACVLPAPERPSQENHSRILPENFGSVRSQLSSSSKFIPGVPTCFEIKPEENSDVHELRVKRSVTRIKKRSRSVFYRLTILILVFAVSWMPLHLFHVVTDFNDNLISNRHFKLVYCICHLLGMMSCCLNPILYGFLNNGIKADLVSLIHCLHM
Kind of assay: Receptor-binding studies on cell lines expressing NPY Y5 receptor.

For the next assay, the target named is NPY Y1 receptor (Homo sapiens, UniProt P25929). Kind of assay: biochemical. It is filed as binding.
A further assay addresses T2, NPY Y2 receptor (Homo sapiens, UniProt P49146).
T2 construct: host or cells: unnamed cell line expressing the receptor
T2 sequence (P49146 1-381): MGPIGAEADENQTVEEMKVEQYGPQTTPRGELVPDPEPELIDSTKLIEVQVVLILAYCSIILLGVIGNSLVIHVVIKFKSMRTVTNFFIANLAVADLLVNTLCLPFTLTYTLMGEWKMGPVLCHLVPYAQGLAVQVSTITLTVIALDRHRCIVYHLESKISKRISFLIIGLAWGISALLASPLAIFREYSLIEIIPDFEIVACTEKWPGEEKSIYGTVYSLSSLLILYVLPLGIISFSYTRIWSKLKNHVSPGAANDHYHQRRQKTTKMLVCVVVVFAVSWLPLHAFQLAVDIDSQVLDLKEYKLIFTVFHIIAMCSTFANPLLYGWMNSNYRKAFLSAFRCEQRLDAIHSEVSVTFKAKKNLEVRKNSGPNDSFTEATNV
Kind of assay: Receptor-binding studies on cell lines expressing NPY Y2 receptor.

For assay [5], the system named is non-POMC neurons in the arcuate nucleus. Nature of the assay: Recordings from non-fluorescent (non-POMC) neurons in the arcuate nucleus. The assay is classed as cell-based, mouse. The note with it: 13 cells tested; hyperpolarized 5, depolarized 3.

Sequence of NPY Y1 receptor (P25929 whole entry): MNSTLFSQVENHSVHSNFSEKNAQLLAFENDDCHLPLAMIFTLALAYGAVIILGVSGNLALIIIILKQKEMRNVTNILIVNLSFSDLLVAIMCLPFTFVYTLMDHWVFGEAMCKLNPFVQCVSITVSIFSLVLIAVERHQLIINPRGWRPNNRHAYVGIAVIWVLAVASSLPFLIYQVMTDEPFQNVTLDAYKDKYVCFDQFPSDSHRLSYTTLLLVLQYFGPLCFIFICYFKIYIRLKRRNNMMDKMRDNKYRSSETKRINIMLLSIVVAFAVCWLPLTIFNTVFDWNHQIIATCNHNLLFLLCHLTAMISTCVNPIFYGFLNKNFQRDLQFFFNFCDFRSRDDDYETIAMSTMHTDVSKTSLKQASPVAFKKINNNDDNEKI

Turning to `NC1=N[C@H](O)[C@H]2[C@H]3O[C@]4(O)O[C@@H]([C@@H](O)[C@@]2(N1)[C@@H]4O)[C@]3(O)CO` [TTX, tetrodotoxin], the “effect on large amplitude IPSCs” value in assay [1] is “abolished large IPSCs”.

For “Ac-LRHYLNLLTRQRY-NH2 (C-terminus assumed) [Y2A, N-acetyl (Leu^28, Leu^31) NPY (24-36)]”, the “food intake after PVN injection” value in [2] (100 fmol-1 nmol, rats fasted 24 hours) is recorded as “no alteration of food intake”. In addition, the “food intake 2 hour post-injection” value in assay [2] (PVN, 0.1 nmol, n=8) turned out to be 8.0 ± 0.6 g. Also, the “food intake after intra-arcuate injection, dose dependence” value in [3] (100 fmol-1 nmol) was “inhibited food intake”. The “chow ingested 2 hours post-injection” value in assay [3] (intra-arcuate, 0.1 μmol, n=8) was 6.2 ± 0.5 g. The “reduction of frequency of IPSCs onto POMC neurons” value in [1] was determined as 44.4±9.3%. In the assay on POMC neurons (whole cell, PYY3-36 n=22, Y2A n=9), the “depolarization of POMC neurons” value is 8.7±1.8 mV. Further, in assay [4] (45 minutes (FIG. 8e)), the “α-MSH release from hypothalamic explants” value was “concomitant increase in α-MSH release”. The “NPY release from hypothalamic explants” value in assay [4] (45 minutes (FIG. 8d)) is on record as “significantly decreased NPY release”.

A word on the IC50: it is the point on the concentration scale where inhibition reaches its midpoint. Read a low IC50 as inhibition by little substance. In the case of “Ac-LRHYLNLLTRQRY-NH2 [Y2A, N-acetyl (Leu^28, Leu^31) NPY (24-36)]”, the 50% inhibitory concentration (IC50) is more than 5000 nM on NPY Y5 receptor, more than 5000 nM on NPY Y1 receptor and 1.3 ± 0.2 nM at NPY Y2 receptor.

As for CTAP, the “effect on the current induced by Met-Enk in POMC cells” value with POMC neurons is listed as “completely prevented the current induced by Met-Enk”.

Take D-Trp^8-γMSH: the “frequency of action potentials” value in the assay with POMC neurons (7 nM) is “decreased the frequency of action potentials”.

With NPY, in assay [1], the “IPSCs in the presence of tetrodotoxin (TTX)” value was “still inhibited IPSCs” and the “decrease of frequency of GABAergic IPSCs” value came to 55%. For the same molecule, in assay [1] (100 nM), the “time to decrease of IPSC frequency” value was not above 3 min.

With met-enkephalin, in the assay with POMC neurons (30 μM), the “spontaneous action potential generation” value was “prevented spontaneous action potential generation” and the “time to hyperpolarization (rapid)” value lay in the range of 35 to 40 s. The “reversal-potential of the inwardly-rectifying opioid current” value with POMC neurons (6.5 mM K+ Krebs, n=3) is recorded as “approximately −60 mV”.

Regarding picrotoxin, the “effect on IPSCs” value in assay [1] (100 μM) is “blocked all IPSCs”.

B1: leptin: leptin applied to identified POMC cells in slice preparations (protein, UniProt P41160 22-167, looked up)
Leptin: VPIQKVQDDTKTLIKTIVTRINDISHTQSVSAKQRVTGLDFIPGLHPILSLSKMDQTLAVYQQVLTSLPSQNVLQIANDLENLRDLLHLLAFSKSCSLPQTSGLQKPESLDGVLEASLYSTEVVALSRLQGSLQDILQQLDVSPEC
Take B1: the “IPSCs in the presence of tetrodotoxin (TTX)” value in [1] is “still inhibited IPSCs”. Besides, in assay [1] (100 nM (leptin: 5 out of 15 cells; NPY: all 12 cells)), the “decrease of frequency of GABAergic IPSCs” value came to 25%. The “reversal of the small inward current” value in the assay on POMC neurons (100 nM) is reported as “approximately −20 mV”. Besides, the “mean±SEM depolarization” value with POMC neurons (100 nM, n=45) is given as 9.7±1.2 mV. In the assay on POMC neurons (0.1-100 nM), this molecule gave a time to depolarization of 2 to 10 min. In addition, the “depolarization of POMC cells” value in the assay with POMC neurons (0.1-100 nM, 72 of 77 cells) was 3-30 mV. For the same molecule, in the assay with POMC neurons (read-out: EC50 of concentration dependent depolarization of POMC cells), the EC50 turned out to be 5.9 nM. In addition, the “effect on adjacent non-fluorescent ARC cells” value in assay [5] was “no effect on 5 of 13 adjacent non-fluorescent cells tested”.

The values above are taken from patent US8217001B2, “Modification of feeding behavior” (Imperial Innovations Limited, priority 2001, dated 2012).
